Laboratory results: ChEMBL document CHEMBL1134016, “Different antagonist binding properties of human and rat histamine H3 receptors” (Bioorg Med Chem Lett, 2001)

What was measured:
Histamine H3 receptor [1] = target: T1, Histamine H3 receptor (Homo sapiens, UniProt Q9Y5N1); experiment: biochemical; format: cell-based, CHO-K1
Description: Inhibition of [125I]iodoproxyfan binding to human histamine H3 receptor of CHO-K1 cells

Histamine H3 receptor [2] = target: T2, Histamine H3 receptor (Rattus norvegicus, UniProt Q9QYN8); experiment: biochemical; format: cell-based, CHO-K1
Description: Inhibition of [125I]iodoproxyfan from rat histamine H3 receptor expressed in CHO-K1 cells

Histamine H3 receptor [3] = target: T1, Histamine H3 receptor; experiment: Ratio of binding affinity of rat histamine H3 receptor to that of human histamine H3 receptor; 1:3
Histamine H3 receptor [4] = target: T1, Histamine H3 receptor; experiment: Ratio of binding affinity of rat histamine H3 receptor to that of human histamine H3 receptor;1:10
Histamine H3 receptor [5] = target: T1, Histamine H3 receptor; experiment: Ratio of binding affinity of rat histamine H3 receptor to that of human histamine H3 receptor;1:6
Histamine H3 receptor [6] = target: T2, Histamine H3 receptor; experiment: Binding affinity to rat Histamine H3 receptor in CHO-K1 cells using [125I]iodoproxyfan as radioligand; format: cell-based
Histamine H3 receptor [7] = target: T1, Histamine H3 receptor; experiment: Ratio of binding affinity of rat histamine H3 receptor to that of human histamine H3 receptor; 1:12

T2 sequence (Q9QYN8 whole entry): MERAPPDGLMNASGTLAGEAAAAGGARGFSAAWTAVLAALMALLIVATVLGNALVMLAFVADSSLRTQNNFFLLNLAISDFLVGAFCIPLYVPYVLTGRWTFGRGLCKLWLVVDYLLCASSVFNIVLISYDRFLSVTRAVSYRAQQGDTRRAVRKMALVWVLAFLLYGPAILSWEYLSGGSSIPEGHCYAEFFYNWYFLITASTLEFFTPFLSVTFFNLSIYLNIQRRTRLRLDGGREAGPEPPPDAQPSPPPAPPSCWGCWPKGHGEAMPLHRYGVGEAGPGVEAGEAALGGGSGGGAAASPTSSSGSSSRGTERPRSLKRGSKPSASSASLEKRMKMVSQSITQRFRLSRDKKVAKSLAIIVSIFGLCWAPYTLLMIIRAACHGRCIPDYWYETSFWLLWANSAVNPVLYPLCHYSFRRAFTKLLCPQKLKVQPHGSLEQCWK
T1 sequence (Q9Y5N1 whole entry): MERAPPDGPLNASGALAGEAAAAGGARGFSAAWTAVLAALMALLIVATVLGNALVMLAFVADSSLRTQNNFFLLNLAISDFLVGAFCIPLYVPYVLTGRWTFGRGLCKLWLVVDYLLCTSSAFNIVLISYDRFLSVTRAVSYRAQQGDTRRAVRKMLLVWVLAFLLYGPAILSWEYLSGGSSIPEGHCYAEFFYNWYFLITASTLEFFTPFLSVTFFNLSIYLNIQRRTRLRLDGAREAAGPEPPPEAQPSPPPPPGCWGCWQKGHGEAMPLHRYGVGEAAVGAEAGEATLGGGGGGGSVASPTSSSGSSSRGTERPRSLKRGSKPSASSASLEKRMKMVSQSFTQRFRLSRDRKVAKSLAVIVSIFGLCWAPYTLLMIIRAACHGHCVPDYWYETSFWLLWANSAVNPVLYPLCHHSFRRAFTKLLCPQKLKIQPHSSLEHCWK

Structure (SMILES)	Ki (Histamine H3 receptor [1])	Ki (Histamine H3 receptor [2])	also measured
CC(=O)c1ccc(OCCCCc2cnc[nH]2)cc1	19 nM	36 nM	
O=C(c1ccc(OCCCc2cnc[nH]2)cc1)C1CC1 [CIPROXIFAN]		3.9 nM	
CC(=O)c1ccc(SCCc2cnc[nH]2)cc1	1.1 nM	0.11 nM	
CC(=O)c1ccc(SCCc2c[nH]cn2)cc1			Ratio (Histamine H3 receptor [4]): 10
COc1ccc(OCCCc2c[nH]cn2)cc1	47 nM	7.9 nM	Ratio (Histamine H3 receptor [5]): 6
S=C(NC1CCCCC1)N1CCC(c2cnc[nH]2)CC1 [THIOPERAMIDE]			Ki (Histamine H3 receptor [6]): 6.5 nM
CC(=O)c1ccc(OCCc2c[nH]cn2)cc1			Ratio (Histamine H3 receptor [7]): 12
c1ccc(OCCCc2c[nH]cn2)cc1	27 nM		
CC(=O)c1ccc(OCCc2cnc[nH]2)cc1	42 nM	3.6 nM	

Further lines, with some results ahead:

Ki (Histamine H3 receptor [1])	Ki (Histamine H3 receptor [2])	Structure (SMILES)	also measured
87 nM	29 nM	CC(=O)c1ccc(OCCCc2c[nH]cn2)cc1	Ratio (Histamine H3 receptor [3]): 3
2.7 nM	2.9 nM	c1ccc(COCCCc2c[nH]cn2)cc1 [PROXYFAN]	
41 nM	71 nM	Ic1ccc(COCCCc2c[nH]cn2)cc1 [IODOPROXYFAN]	
18 nM	44 nM	CC(=O)c1ccc(SCCCc2c[nH]cn2)cc1	
